Experimental data reported in patent publication US10844002B2, “Lipids and lipid compositions for the delivery of active agents” (priority 2014, dated 2020).

Key:
[1] = Measurement of mRNA encapsulation in lipid nanoparticles (Quant-iT Ribogreen); type: physicochemical; details: LNP cationic lipid/DSPC/cholesterol/stealth lipid, N:P 4:1, leptin mRNA
Experimental: All equipment and disposable supplies are certified free of RNase activity by the manufacturer or rendered RNase free by use of the RNaseZap reagent (LifeTechnologies). mRNA is encapsulated at a cationic lipid amine to mRNA phosphate (N:P) molar ratio of 4:1. Lipids (cationic lipid, DSPC, cholesterol and lipidated PEG or stealth lipid) are dissolved in ethanol. The molar ratios are 40:10:38:2, respectively. The mixture is sonicated briefly, then gently agitated for 5 minutes and then maintained at 37° C. until use. mRNA is exchanged into citrate buffer pH 5.8-6.0 by use of Amicon Ultra-15 centrifugal concentrators, and the final concentration is adjusted to 0.5 mg/ml and held at 37° C. until use. An equal volume of lipids in ethanol, mRNA in citrate buffer, and citrate buffer alone are drawn into disposable syringes. Tubing leading from syringes containing lipids and mRNA are attached to the T junction, and tubing leading from the syringe containing citrate buffer alone is paired with the tubing exiting the T-junction over a collection vessel containing a stir bar on an active stir plate. Syringes are placed in a syringe pump set to expel contents at a flow rate of 1 ml per minute.
The pump is activated, and the collected mRNA in lipid nanoparticles is transferred to SnakeSkin dialysis tubing (10,000 MWCO, Thermo Scientific). Material is dialyzed against RNAse- and pyrogen-free 1× phosphate buffered saline overnight at 4° C.
Percent encapsulation of mRNA in lipid nanoparticles is determined using the Quant-iT Ribogreen RNA Assay kit (Life Technologies). The LNP-mRNA suspension is assayed in buffer (mRNA outside the particle), and buffer plus Triton X-100 detergent (total mRNA). The difference calculated is the mRNA inside the particle. Prepare a 1000 ng/mL stock from the RNA provided in the kit and use this to generate a standard curve (0 ng/ml, 15.63-1000 ng/ml) in TE and TE+0.75% Triton X-100. Prepare LNP-mRNA samples in TE buffer and TE buffer+0.75% Triton X-100 with appropriate dilution so that reading is in the range of standard curve (400-2,000 fold). In a 384-well plate (Costar non-treated #3573) add 0.04 ml of standard (in duplicate) or sample (in triplicate) per well. Dilute Ribogreen reagent 240-fold in TE buffer and add 0.06 ml per well. Mix contents of wells and measure fluorescence (excitation=480 nm, emission=520 nm). Subtract background values (no RNA) from standard and test sample values and determine the concentrations of RNA in the samples using the standard curves. Determine the percent encapsulation of the sample by dividing the difference in concentrations between sample+triton and sample in buffer alone by the sample+triton concentration.

[2] = Characterization of LNP formulations: Z average particle diameter and polydispersity index; type: physicochemical; details: LNP formulation
Text: The lipid nanoparticles have a size of about 1 to about 2,500 nm, about 1 to about 1,500 nm, about 1 to about 1,000 nm, in a sub-embodiment about 50 to about 600 nm, in a sub-embodiment about 50 to about 400 nm, in a sub-embodiment about 50 to about 250 nm, and in a sub-embodiment about 50 to about 150 nm. Unless indicated otherwise, all sizes referred to herein are the average sizes (diameters) of the fully formed nanoparticle, as measured by dynamic light scattering on a Malvern Zetasizer. The nanoparticle sample is diluted in phosphate buffered saline (PBS) so that the count rate is approximately 200-400 kcts. The data is presented as a weighted average of the intensity measure.

**Q.** Which “% encapsulation (mRNA Leptin)” value [1] does the source give for `CCCCC/C=C\C/C=C\CCCCCCCCOc1ccc(OCCCCCCCC/C=C\C/C=C\CCCCC)c(COC(=O)CCCN(C)C)c1` [Example 1, 2,5-bis((9Z,12Z)-octadeca-9,12-dien-1-yloxy)benzyl 4-(dimethylamino)butanoate] here?
**A.** 73.3%

**Q.** What about the “Zav (nm)” value ([2]; Z average particle diameter) of the same compound?
**A.** 135.3 nm

**Q.** What about the polydispersity ([2]; polydispersity index) of the same compound?
**A.** 0.11
